Experimental data reported in US8207172B2 (Bayer Intellectual Property GmbH, priority 2004, dated 2012).

Columns and labels:
[1] = test system: A431 cells (human epidermoid carcinoma); experiment: In vitro tumor cell proliferation assay (Cell Titer-Glo luminescent cell viability), A431; format: cell-based; conditions: A-431, 72 h, 72 hours of drug exposure, ATP luminescence readout, read-out: IC50, anti-proliferative activity (inhibition of cell proliferation)
Description: (§1) In vitro Tumor Cell Proliferation Assay
(§2) The tumor cell proliferation assay used to test the compounds of the present invention involves a readout called Cell Titer-Glow® Luminescent Cell Viability Assay developed by Promega® (Cunningham, B A “A Growing Issue: Cell Proliferation Assays, Modern kits ease quantification of cell growth” The Scientist 2001, 15(13), 26, and Crouch, S P et al., “The use of ATP bioluminescence as a measure of cell proliferation and cytotoxicity” Journal of Immunological Methods 1993, 160, 81-88), that measures inhibition of cell proliferation. Generation of a luminescent signal corresponds to the amount of ATP present, which is directly proportional to the number of metabolically active (proliferating) cells.
(§3) A431cells (human epidermoid carcinoma, ATCC […]) and BT474 (human breast carcinoma, ATCC […]) were plated at a density of 2.5×10^3 cells/well in 96 well black-clear bottom tissue culture plates in RPMI media with 10% Fetal Bovine Serum and incubated at 37° C. Twenty-four hours later, test compounds are added at a final concentration range from as high […] to as low 64 pM depend on the activities of the tested compounds in serial dilutions at a final DMSO concentration of 0.1%. Cells were incubated for 72 hours at 37° C. in complete growth media after addition of the test compound. After 72 hours of drug exposure, the plates were equilibrated to room temperature for approximately 30 min. Then, using a Promega Cell Titer Glo Luminescent® assay kit, lysis buffer containing 100 microliters of the enzyme luciferase and its substrate, luciferin mixture, was added to each well. The plates were mixed for 2 min on orbital shaker to ensure cell lysis and incubated for 10 min at room temperature to stabilize luminescence signal. The samples were read on VICTOR 2 using Luminescence protocol, and analyzed with Analyze5 software to generate IC50 values.

[2] = test system: BT474 (human breast carcinoma); experiment: In vitro tumor cell proliferation assay (Cell Titer-Glo luminescent cell viability), BT474; format: cell-based; conditions: BT-474, 72 h, BT474 cells, 72 hours of drug exposure, ATP luminescence readout, read-out: IC50, anti-proliferative activity (inhibition of cell proliferation)
Description: as §1, §2, §3

IC50 [1] [µM] | IC50 [2] [µM] | Compound
≤ 5 | ≤ 1 | CN1CCN(CCn2cc3c(n2)CCc2c-3sc3ncnc(Nc4ccc(F)c(Cl)c4)c23)CC1 [Example 8, N-(3-chloro-4-fluorophenyl)-2-[2-(4-methylpiperazin-1-yl)ethyl]-4,5-dihydro-2H-pyrimido[5′,4′:4,5]thieno[2,3-e]indazol-6-amine]
≤ 5 | ≤ 5 | Fc1ccc(Nc2ncnc3sc4c(c23)CCc2nn(CCN3CCCC3)cc2-4)cc1Cl [Example 9, N-(3-chloro-4-fluorophenyl)-2-(2-pyrrolidin-1-ylethyl)-4,5-dihydro-2H-pyrimido[5′,4′:4,5]thieno[2,3-e]indazol-6-amine]
≤ 5 | ≤ 5 | Fc1ccc(Nc2ncnc3sc4c(c23)CCc2nn(CCN3CCCCC3)cc2-4)cc1Cl [Example 11, N-(3-chloro-4-fluorophenyl)-2-(2-piperidin-1-ylethyl)-4,5-dihydro-2H-pyrimido[5′,4′:4,5]thieno[2,3-e]indazol-6-amine]
≤ 5 | ≤ 1 | CN(C)C1CCN(CCn2cc3c(n2)CCc2c-3sc3ncnc(Nc4ccc(F)c(Cl)c4)c23)C1 (stereo not shown) [Example 15, N-(3-chloro-4-fluorophenyl)-2-{2-[3-(dimethylamino)pyrrolidin-1-yl]ethyl}-4,5-dihydro-2H-pyrimido[5′,4′:4,5]thieno[2,3-e]indazol-6-amine]
≤ 50 | ≤ 50 | Fc1ccc(Nc2ncnc3sc4c(c23)CCc2nn(CCNCCN3CCCC3)cc2-4)cc1Cl [Example 18, N-(3-chloro-4-fluorophenyl)-2-{2-[(2-pyrrolidin-1-ylethyl)amino]ethyl}-4,5-dihydro-2H-pyrimido[5′,4′:4,5]thieno[2,3-e]indazol-6-amine]
≤ 5 | ≤ 5 | COCCN1CCN(CCn2cc3c(n2)CCc2c-3sc3ncnc(Nc4ccc(F)c(Cl)c4)c23)CC1 [Example 25, N-(3-chloro-4-fluorophenyl)-2-{2-[4-(2-methoxyethyl)piperazin-1-yl]ethyl}-4,5-dihydro-2H-pyrimido[5′,4′:4,5]thieno[2,3-e]indazol-6-amine]
≤ 5 | ≤ 5 | COC[C@H]1CCCN1CCn1cc2c(n1)CCc1c-2sc2ncnc(Nc3ccc(F)c(Cl)c3)c12 [Example 28, N-(3-chloro-4-fluorophenyl)-2-{2-[(2R)-2-(methoxymethyl)pyrrolidin-1-yl]ethyl}-4,5-dihydro-2H-pyrimido[5′,4′:4,5]thieno[2,3-e]indazol-6-amine]

Further lines, the molecule ahead of its results:

Compound | IC50 [1] [µM] | IC50 [2] [µM]
COCCN(C)CCn1cc2c(n1)CCc1c-2sc2ncnc(Nc3ccc(F)c(Cl)c3)c12 [Example 10, N-(3-chloro-4-fluorophenyl)-2-{2-[(2-methoxyethyl)(methyl)amino]ethyl}-4,5-dihydro-2H-pyrimido[5′,4′:4,5]thieno[2,3-e]indazol-6-amine] | ≤ 5 | ≤ 5
Fc1ccc(Nc2ncnc3sc4c(c23)CCc2nn(CCn3ccnc3)cc2-4)cc1Cl [Example 12, N-(3-chloro-4-fluorophenyl)-2-[2-(1H-imidazol-1-yl)ethyl]-4,5-dihydro-2H-pyrimido[5′,4′:4,5]thieno[2,3-e]indazol-6-amine] | ≤ 5 | ≤ 5
CS(=O)(=O)CCNCCn1cc2c(n1)CCc1c-2sc2ncnc(Nc3ccc(F)c(Cl)c3)c12 [Example 13, N-(3-chloro-4-fluorophenyl)-2-(2-{[2-(methylsulfonyl)ethyl]amino}ethyl)-4,5-dihydro-2H-pyrimido[5′,4′:4,5]thieno[2,3-e]indazol-6-amine] | ≤ 5 | ≤ 5
Fc1ccc(Nc2ncnc3sc4c(c23)CCc2nn(CCN3CCN(Cc5ccncc5)CC3)cc2-4)cc1Cl [Example 14, N-(3-chloro-4-fluorophenyl)-2-{2-[4-(pyridin-4-ylmethyl)piperazin-1-yl]ethyl}-4,5-dihydro-2H-pyrimido[5′,4′:4,5]thieno[2,3-e]indazol-6-amine] | ≤ 5 | ≤ 5
CN(C)CCNCCn1cc2c(n1)CCc1c-2sc2ncnc(Nc3ccc(F)c(Cl)c3)c12 [Example 16, N′-(2-{6-[(3-chloro-4-fluorophenyl)amino]-4,5-dihydro-2H-pyrimido[5′,4′:4,5]thieno[2,3-e]indazol-2-yl}ethyl)-N,N-dimethylethane-1,2-diamine] | ≤ 5 | ≤ 5
CN(C)CCCCNCCn1cc2c(n1)CCc1c-2sc2ncnc(Nc3ccc(F)c(Cl)c3)c12 [Example 17, N′-(2-{6-[(3-chloro-4-fluorophenyl)amino]-4,5-dihydro-2H-pyrimido[5′,4′:4,5]thieno[2,3-e]indazol-2-yl}ethyl)-N,N-dimethylbutane-1,4-diamine] | ≤ 5 | ≤ 5
OCCNCCn1cc2c(n1)CCc1c-2sc2ncnc(Nc3ccc(F)c(Cl)c3)c12 [Example 19, 2-[(2-{6-[(3-chloro-4-fluorophenyl)amino]-4,5-dihydro-2H-pyrimido[5′,4′:4,5]thieno[2,3-e]indazol-2-yl}ethyl)amino]ethanol] | ≤ 5 | ≤ 5
COCCN(CCn1cc2c(n1)CCc1c-2sc2ncnc(Nc3ccc(F)c(Cl)c3)c12)C(C)C [Example 21, N-(3-chloro-4-fluorophenyl)-2-{2-[isopropyl(2-methoxyethyl)amino]ethyl}-4,5-dihydro-2H-pyrimido[5′,4′:4,5]thieno[2,3-e]indazol-6-amine] | ≤ 5 | ≤ 5
Fc1ccc(Nc2ncnc3sc4c(c23)CCc2nn(CCN3CCN(c5cnccn5)CC3)cc2-4)cc1Cl [Example 22, N-(3-chloro-4-fluorophenyl)-2-[2-(4-pyrazin-2-ylpiperazin-1-yl)ethyl]-4,5-dihydro-2H-pyrimido[5′,4′:4,5]thieno[2,3-e]indazol-6-amine] | ≤ 5 | ≤ 5
CCCN(CCOC)CCn1cc2c(n1)CCc1c-2sc2ncnc(Nc3ccc(F)c(Cl)c3)c12 [Example 23, N-(3-chloro-4-fluorophenyl)-2-{2-[(2-methoxyethyl)(propyl)amino]ethyl}-4,5-dihydro-2H-pyrimido[5′,4′:4,5]thieno[2,3-e]indazol-6-amine] | ≤ 5 | ≤ 5
CCN(CCOC)CCn1cc2c(n1)CCc1c-2sc2ncnc(Nc3ccc(F)c(Cl)c3)c12 [Example 24, N-(3-chloro-4-fluorophenyl)-2-{2-[ethyl(2-methoxyethyl)amino]ethyl}-4,5-dihydro-2H-pyrimido[5′,4′:4,5]thieno[2,3-e]indazol-6-amine] | ≤ 5 | ≤ 5
OCCN(CCO)CCn1cc2c(n1)CCc1c-2sc2ncnc(Nc3ccc(F)c(Cl)c3)c12 [Example 26, 2,2′-[(2-{6-[(3-chloro-4-fluorophenyl)amino]-4,5-dihydro-2H-pyrimido[5′,4′:4,5]thieno[2,3-e]indazol-2-yl}ethyl)imino]diethanol] | ≤ 5 | ≤ 5
CC(C)(C)OC(=O)N1CCN(CCn2cc3c(n2)CCc2c-3sc3ncnc(Nc4ccc(F)c(Cl)c4)c23)CC1 [Example 27, tert-butyl 4-(2-{6-[(3-chloro-4-fluorophenyl)amino]-4,5-dihydro-2H-pyrimido[5′,4′:4,5]thieno[2,3-e]indazol-2-yl}ethyl)piperazine-1-carboxylate] | ≤ 5 | ≤ 5
